From paper PMC5883864 (Chemical Science, 2017) come the findings set out here.

The assay has as its target glucose oxidase (GOx) (Aspergillus niger, UniProt P13006). The assay is described as follows: HRP-coupled chromogenic assay of H2O2. Format: biochemical. Particulars: free enzyme; O2 co-substrate.

Sequence of glucose oxidase (GOx) (P13006 17-605): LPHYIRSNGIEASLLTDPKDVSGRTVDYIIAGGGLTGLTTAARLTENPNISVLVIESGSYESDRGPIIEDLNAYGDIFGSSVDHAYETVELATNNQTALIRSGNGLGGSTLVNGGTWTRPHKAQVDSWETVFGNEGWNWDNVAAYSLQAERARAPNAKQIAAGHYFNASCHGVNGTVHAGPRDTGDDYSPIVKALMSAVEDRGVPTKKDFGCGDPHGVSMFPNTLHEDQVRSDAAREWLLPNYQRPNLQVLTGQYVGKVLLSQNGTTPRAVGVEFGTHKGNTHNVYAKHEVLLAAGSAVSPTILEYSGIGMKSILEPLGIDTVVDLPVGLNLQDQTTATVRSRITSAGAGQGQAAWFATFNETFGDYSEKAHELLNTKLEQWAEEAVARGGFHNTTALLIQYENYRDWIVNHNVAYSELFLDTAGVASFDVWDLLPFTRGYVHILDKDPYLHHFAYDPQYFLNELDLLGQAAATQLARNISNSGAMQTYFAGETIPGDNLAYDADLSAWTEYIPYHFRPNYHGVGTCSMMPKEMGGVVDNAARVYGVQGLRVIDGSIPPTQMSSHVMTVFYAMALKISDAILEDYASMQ

As to `OC[C@H]1OC(O)[C@H](O)[C@@H](O)[C@@H]1O` (stereo partly shown) [glucose], the KM result is “glucose diffuses in and one of the products, namely hydrogen peroxide, must diffuse out”.
